Experimental data from US4319028A, “7-(2-(Substituted benzoyl)amino)acetamido)cephalosporins” (Eli Lilly and Company, priority 1976, dated 1982).
Converted amounts (≈) assume the structure as drawn. Like-named read-outs stand apart in the source and are kept apart here.

Columns and labels:
Shigella sp. = assay: Antibiotic activity (MIC), Gradient Plate in vitro method, Shigella sp.; assay type: cell-based; settings: read-out: Minimum Inhibitory Concentration
Excerpt: (§1) The antibiotic activity of the cephalosporin compounds of the present invention is illustrated by the data presented in Table I for representative compounds. The values in the table are the minimum inhibitory concentrations (MIC) for the test compounds against the indicated microorganisms. The MIC values were obtained in the Gradient Plate in vitro method for determining antibiotic activity.

Escherichia coli = assay: Antibiotic activity (MIC), Gradient Plate in vitro method, Escherichia coli; assay type: cell-based; settings: read-out: Minimum Inhibitory Concentration
Excerpt: (§2) The values in the table are the minimum inhibitory concentrations (MIC) for the test compounds against the indicated microorganisms. The MIC values were obtained in the Gradient Plate in vitro method for determining antibiotic activity.

Klebsiella pneumoniae = assay: Antibiotic activity (MIC), Gradient Plate in vitro method, Klebsiella pneumoniae; assay type: cell-based; settings: read-out: Minimum Inhibitory Concentration
Excerpt: as §2

Aerobacter Aerogenes = assay: Antibiotic activity (MIC), Gradient Plate in vitro method, Aerobacter Aerogenes; assay type: cell-based; settings: Klebsiella aerogenes, read-out: Minimum Inhibitory Concentration
Excerpt: as §2

Salmonella heidelberg = assay: Antibiotic activity (MIC), Gradient Plate in vitro method, Salmonella heidelberg; assay type: cell-based; settings: Salmonella enterica, read-out: Minimum Inhibitory Concentration
Excerpt: as §2

Pseudomonas Aeruginosa = assay: Antibiotic activity (MIC), Gradient Plate in vitro method, Pseudomonas Aeruginosa; assay type: cell-based; settings: read-out: Minimum Inhibitory Concentration
Excerpt: as §2

Serratia marcescens = assay: Antibiotic activity (MIC), Gradient Plate in vitro method, Serratia marcescens; assay type: cell-based; settings: read-out: Minimum Inhibitory Concentration
Excerpt: as §1

[1] = system: V41 (penicillin resistant Staphylococcus); assay: Antibiotic activity (MIC), Gradient Plate in vitro method, V41; assay type: cell-based; settings: read-out: Minimum Inhibitory Concentration
Excerpt: as §1
(§3) ^1 Test organisms V41, V32, and V84 are penicillin resistant

[2] = system: V32 (penicillin resistant Staphylococcus); assay: Antibiotic activity (MIC), Gradient Plate in vitro method, V32; assay type: cell-based; settings: read-out: Minimum Inhibitory Concentration
Excerpt: as §1, §3

[3] = system: X466 (methicillin resistant Staphylococcus); assay: Antibiotic activity (MIC), Gradient Plate in vitro method, X466; assay type: cell-based; settings: read-out: Minimum Inhibitory Concentration
Excerpt: as §1, with “activity. […]” for “activity.”

[4] = system: V84 (penicillin resistant Staphylococcus); assay: Antibiotic activity (MIC), Gradient Plate in vitro method, V84; assay type: cell-based; settings: read-out: Minimum Inhibitory Concentration
Excerpt: as §1, §3

Titration (pKa) = assay type: physicochemical; settings: 66% dmf-34% h2o, titration (66% DMF-34% H2O)
[5] = Gradient Plate in vitro, V41, penicillin resistant Staphylococcus
[6] = Gradient Plate in vitro, V32, penicillin resistant Staphylococcus
[7] = Gradient Plate in vitro, V84, penicillin resistant Staphylococcus
[8] = first pKa, read-out: pKa (first value)
[9] = second pKa, read-out: pKa (second value)

Row | SMILES | MIC (Shigella sp.) [µg/mL] | MIC (Escherichia coli) [µg/mL] | MIC (Klebsiella pneumoniae) [µg/mL] | MIC (Aerobacter Aerogenes) [µg/mL] | MIC (Salmonella heidelberg) [µg/mL] | MIC (Pseudomonas Aeruginosa) [µg/mL] | MIC (Serratia marcescens) [µg/mL] | MIC [1, 5] [µg/mL] | MIC [2, 6] [µg/mL] | MIC [3] [µg/mL] | MIC [4, 7] [µg/mL] | pKa (Titration (pKa); [8]) | pKa (Titration (pKa); [9]) | MIC ([2]; Staphylococcus) [µg/mL] | MIC ([4]; Staphylococcus) [µg/mL] | MIC ([1]; Staphylococcus) [µg/mL]
1 | Cn1nnnc1SCC1=C(C(=O)O)N2C(=O)C(NC(=O)[C@H](NC(=O)c3cccc(O)c3O)c3ccccc3)C2SC1 (stereo partly drawn) [Example 1, 7-[D-[2-Phenyl-2-[(2,3-dihydroxybenzoyl)amino]acetyl]amino]-3-[[(1-methyltetrazol-5-yl)thio]methyl]-3-cephem-4-carboxylic acid] | 3.7 (≈ 6.19 µM) | 14.8 (≈ 24.8 µM) | 10 (≈ 16.7 µM) | 5.4 (≈ 9.04 µM) | 0.5 (≈ 0.837 µM) | 13.8 (≈ 23.1 µM) | 16.4 (≈ 27.4 µM) | 15.1 (≈ 25.3 µM) | 132 (≈ 221 µM) | 136 (≈ 228 µM) | 10.3 (≈ 17.2 µM) | 5.31 | 8.73 | – | – | –
2 | Cn1nnnc1SCC1=C(C(=O)O)N2C(=O)C(NC(=O)[C@H](NC(=O)c3ccc(O)c(O)c3)c3ccc(O)cc3)C2SC1 (stereo partly drawn) [Example 2, 7-[D-[2-(4-Hydroxyphenyl)-2-[(3,4-dihydroxybenzoyl)amino]acetyl]amino]-3-[[(1-methyltetrazol-5-yl)thio]methyl]-3-cephem-4-carboxylic acid] | 1 (≈ 1.63 µM) | 8.5 (≈ 13.9 µM) | 0.8 (≈ 1.3 µM) | 4 (≈ 6.52 µM) | 0.2 (≈ 0.326 µM) | 4.9 (≈ 7.99 µM) | > 200 | 3.6 (≈ 5.87 µM) | 3.8 (≈ 6.19 µM) | 8.4 (≈ 13.7 µM) | 3.2 (≈ 5.21 µM) | 4.1 | 10.9 | – | – | –
3 | Cn1nnnc1SCC1=C(C(=O)O)N2C(=O)C(NC(=O)[C@H](NC(=O)c3cccc(O)c3O)c3ccc(O)cc3)C2SC1 (stereo partly drawn) [Example 3, 7-[D-[2-(4-Hydroxyphenyl)-2-[(2,3-dihydroxybenzoyl)amino]acetyl]amino]-3-[[(1-methyltetrazol-5-yl)thio]methyl]-3-cephem-4-carboxylic acid] | 7 (≈ 11.4 µM) | 13.2 (≈ 21.5 µM) | 4.1 (≈ 6.68 µM) | 6.6 (≈ 10.8 µM) | 1 (≈ 1.63 µM) | 5.3 (≈ 8.64 µM) | 80 (≈ 130 µM) | 23 (≈ 37.5 µM) | 23 (≈ 37.5 µM) | 130 (≈ 212 µM) | 22 (≈ 35.9 µM) | 5.02 | 8.83 | – | – | –
4 | Cn1nnnc1SCC1=C(C(=O)O)N2C(=O)C(NC(=O)[C@H](NC(=O)c3ccccc3O)c3ccc(O)cc3)C2SC1 (stereo partly drawn) [Example 4, 7-[D-[2-(4-Hydroxyphenyl)-2-[(2-hydroxybenzoyl)amino]acetyl]amino]-3-[[(1-methyltetrazol-5-yl)thio]methyl]-3-cephem-4-carboxylic acid] | 33 (≈ 55.2 µM) | 60 (≈ 100 µM) | 29 (≈ 48.5 µM) | 49 (≈ 82 µM) | 32.5 (≈ 54.4 µM) | 104 (≈ 174 µM) | > 200 | 4.6 (≈ 7.7 µM) | – | 41 (≈ 68.6 µM) | 2.2 (≈ 3.68 µM) | 5.09 | 10 | 4 (≈ 6.69 µM) | – | –
5 | Cc1nnc(SCC2=C(C(=O)O)N3C(=O)C(NC(=O)[C@H](NC(=O)c4c(O)cccc4O)c4ccc(O)cc4)C3SC2)s1 (stereo partly drawn) [Example 5, 7-[D-[2-(4-Hydroxyphenyl)-2-[(2,6-dihydroxybenzoyl)-amino]acetyl]amino]-3-[[(5-methyl-1,3,4-thiadiazol-2-yl)thio]methyl]-3-cephem-4-carboxylic acid] | 48 (≈ 76.2 µM) | 96 (≈ 152 µM) | 29.5 (≈ 46.8 µM) | 110 (≈ 175 µM) | 82 (≈ 130 µM) | 27.5 (≈ 43.7 µM) | > 200 | 3.7 (≈ 5.88 µM) | 4.6 (≈ 7.31 µM) | 60 (≈ 95.3 µM) | 1.3 (≈ 2.06 µM) | 5.2 | 9.13 | – | – | –
6 | Cc1nnc(SCC2=C(C(=O)O)N3C(=O)C(NC(=O)[C@H](NC(=O)c4cc(O)c(O)c(O)c4)c4ccc(O)cc4)C3SC2)s1 (stereo partly drawn) [Example 6, 7-[D-[2-(4-Hydroxyphenyl)-2-[(3,4,5-trihydroxybenzoyl)-amino]acetyl]amino]-3-[[(5-methyl-1,3,4-thiadiazol-2-yl)thio]methyl]-3-cephem-4-carboxylic acid] | 5.8 (≈ 8.98 µM) | 21.7 (≈ 33.6 µM) | 3.9 (≈ 6.04 µM) | 8.4 (≈ 13 µM) | 0.7 (≈ 1.08 µM) | 6 (≈ 9.29 µM) | > 200 | 6.6 (≈ 10.2 µM) | 8.6 (≈ 13.3 µM) | 130 (≈ 201 µM) | 3.2 (≈ 4.96 µM) | 4.88 | – | – | – | –
7 | Cc1nnc(SCC2=C(C(=O)O)N3C(=O)C(NC(=O)[C@H](NC(=O)c4ccc(O)c(O)c4O)c4ccc(O)cc4)C3SC2)s1 (stereo partly drawn) [Example 7, 7-[D-[2-(4-Hydroxyphenyl)-2-[(2,3,4-trihydroxybenzoyl)-amino]-acetyl]amino]-3-[[(5-methyl-1,3,4-thiadiazol-2-yl)thio]methyl]-3-cephem-4-carboxylic acid] | 50 (≈ 77.4 µM) | 100 (≈ 155 µM) | 52.5 (≈ 81.3 µM) | 57.5 (≈ 89.1 µM) | 16 (≈ 24.8 µM) | 25 (≈ 38.7 µM) | > 200 | 60 (≈ 92.9 µM) | 60 (≈ 92.9 µM) | > 200 | 25 (≈ 38.7 µM) | – | – | – | – | –
8 | Cc1nnc(SCC2=C(C(=O)O)N3C(=O)C(NC(=O)[C@H](NC(=O)c4c(O)cc(O)cc4O)c4ccc(O)cc4)C3SC2)s1 (stereo partly drawn) [Example 8, 7-[D-[2-(4-Hydroxyphenyl)-2-[(2,4,6-trihydroxybenzoyl)-amino]acetyl]amino]-3-[[(5-methyl-1,3,4-thiadiazol-2-yl)thio]methyl]-3-cephem-4-carboxylic acid] | 100 (≈ 155 µM) | 120 (≈ 186 µM) | 110 (≈ 170 µM) | 140 (≈ 217 µM) | 110 (≈ 170 µM) | 100 (≈ 155 µM) | > 200 | 10.5 (≈ 16.3 µM) | – | 120 (≈ 186 µM) | – | – | – | 10 (≈ 15.5 µM) | 10 (≈ 15.5 µM) | –
9 | Cn1c(SCC2=C(C(=O)O)N3C(=O)C(NC(=O)[C@H](NC(=O)c4cccc(O)c4O)c4ccc(O)cc4)C3SC2)nnc(O)c1=O (stereo partly drawn) [Example 9, 7-[D-[2-(4-Hydroxyphenyl)-2-[(2,3-dihydroxybenzoyl)-amino]acetyl]amino]-3-[[(4,5-dihydro-6-hydroxy-4-methyl-5-oxo-1,2,4-triazin-3-yl)thio]methyl]-3-cephem-4-carboxylic acid] | 8 (≈ 12.2 µM) | 22.5 (≈ 34.3 µM) | 3.9 (≈ 5.94 µM) | 11 (≈ 16.8 µM) | 1 (≈ 1.52 µM) | 124 (≈ 189 µM) | > 200 | 16.2 (≈ 24.7 µM) | 14 (≈ 21.3 µM) | > 200 | 11.6 (≈ 17.7 µM) | 4.99 | 8.89 | – | – | –
10 | Cc1nnc(SCC2=C(C(=O)O)N3C(=O)C(NC(=O)[C@H](NC(=O)c4cccc(O)c4)c4ccc(O)cc4)C3SC2)s1 (stereo partly drawn) [Example 10, 7-[D-[2-(4-Hydroxyphenyl)-2-[(3-hydroxybenzoyl)amino]-acetyl]amino]-3-[[(5-methyl-1,3,4-thiadiazol-2-yl)thio]-methyl]-3-cephem-4-carboxylic acid] | 10.4 (≈ 16.9 µM) | 28.8 (≈ 46.9 µM) | 16.8 (≈ 27.4 µM) | 65.5 (≈ 107 µM) | 26 (≈ 42.4 µM) | > 200 | > 200 | – | – | 92 (≈ 150 µM) | – | 5.02 | 11.9 | 1 (≈ 1.63 µM) | 1 (≈ 1.63 µM) | 1 (≈ 1.63 µM)
11 | Cc1nnc(SCC2=C(C(=O)O)N3C(=O)C(NC(=O)[C@H](NC(=O)c4ccc(O)c(Cl)c4)c4ccc(O)cc4)C3SC2)s1 (stereo partly drawn) [Example 11, 7-[D-[2-(4-Hydroxyphenyl)-2-[(3-chloro-4-hydroxybenzoyl)-amino]acetyl]amino]-3-[[(5-methyl-1,3,4-thiadiazol-2-yl)-thio]methyl]-3-cephem-4-carboxylic acid] | 9.6 (≈ 14.8 µM) | 11.2 (≈ 17.3 µM) | 8.9 (≈ 13.7 µM) | 36.8 (≈ 56.8 µM) | 25 (≈ 38.6 µM) | 124 (≈ 191 µM) | 80 (≈ 123 µM) | – | 1.1 (≈ 1.7 µM) | 122 (≈ 188 µM) | – | 4.9 | 9.5 | – | 1 (≈ 1.54 µM) | 1 (≈ 1.54 µM)
12 | Cc1nnc(SCC2=C(C(=O)O)N3C(=O)C(NC(=O)[C@H](NC(=O)c4ccc(N)c(N)c4)c4ccc(O)cc4)C3SC2)s1 (stereo partly drawn) [Example 13, 7-[D-[2-(4-Hydroxyphenyl)-2-[(3,4-diaminobenzoyl)amino]-acetyl]amino]-3-[[(5-methyl-1,3,4-thiadiazol-2-yl)-thio]methyl]-3-cephem-4-carboxylic acid] | 13.8 (≈ 22 µM) | 19 (≈ 30.3 µM) | 14.8 (≈ 23.6 µM) | 33.2 (≈ 52.9 µM) | 14.6 (≈ 23.3 µM) | 31.5 (≈ 50.2 µM) | 116 (≈ 185 µM) | 4.6 (≈ 7.33 µM) | 5.2 (≈ 8.28 µM) | 126 (≈ 201 µM) | – | – | – | – | 5 (≈ 7.97 µM) | –
